Data as given in patent US12600728B2, “Interleukin-17 inhibitors” (priority 2020, dated 2026).
pIC50: −log10 of the molar value. Read-outs that look alike come from different tables or passages of the source.

How the values were obtained:
[1] = biological target: biotinylated human IL-17A / AF647-labeled human IL-17RA (Homo sapiens, UniProt Q16552); assay: Human IL-17A×IL-17RA TR-FRET assay; type: binding; settings: biotinylated human IL-17A 5 nM, AF647-labeled human IL-17RA 30 nM
In short: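 Compounds tested in duplicate at each concentration; neutral controls contain all components with DMSO in place of compound.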

[2] = biological target: recombinant human IL-17AA (Homo sapiens, UniProt Q16552); assay: IL-6 release from NHDF cells, IL-17AA plus TNF-α stimulation; type: cell-based; settings: IL-17AA 30 pM plus TNF-α 6 pM, 24 hours, IL-6 by ELISA
Chain of recombinant human IL-17AA (Q16552 24-155): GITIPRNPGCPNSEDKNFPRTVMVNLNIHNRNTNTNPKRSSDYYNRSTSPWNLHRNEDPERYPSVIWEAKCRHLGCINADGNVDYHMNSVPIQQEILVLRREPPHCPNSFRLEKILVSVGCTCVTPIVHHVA
In short: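 IL-17-specific IL-6 release from NHDF cells adhered overnight; compounds pre-incubated 30 min at room temperature with human IL-17AA plus TNF-α, then 24 h on cells at 37° C. Final DMSO 0.1% or plasma 20%; IL-6 by ELISA (450 nm). TNF-α-only IL-6 subtracted before IC50 fit.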

[3] = TR-FRET, read-out: IL17AA FRET/ IL17Rawt IC50
[4] = NHDF cells, read-out: IL17AA + TNF IC50 IL-6

Chain of biotinylated human IL-17A / AF647-labeled human IL-17RA (Q16552 24-155): as above

| pIC50 [1, 3] | pIC50 [2, 4] | Structure (SMILES) | pIC50 ([1]; IL17AA FRET/ IL17Rawt IC50, TR-FRET) | pIC50 ([2]; IL17AA + TNF IC50 IL-6, NHDF cells) |
| --- | --- | --- | --- | --- |
| 6.79 | 7.08 | Cc1cc[n+]([O-])c(C)c1-c1ccc(NC(=O)[C@@H](NC(=O)c2ccnn2C)C2CCC(F)(F)CC2)cc1F [Example 109, 3-(4-((S)-2-(4,4-difluorocyclohexyl)-2-(1-methyl-1H-pyrazole-5-carboxamido)acetamido)-2-fluorophenyl)-2,4-dimethylpyridine 1-oxide] |  |  |
| 5.98 | 6.79 | Cn1nccc1C(=O)N[C@H](C(=O)Nc1ccc(-c2c[n+]([O-])ccc2Cl)cc1)C1CCCCC1 [Example 112, (S)-4-chloro-3-(4-(2-cyclohexyl-2-(1-methyl-1H-pyrazole-5-carboxamido)acetamido)phenyl)pyridine 1-oxide] |  |  |
| 6.52 | 6.93 | Cc1c[n+]([O-])cc(C)c1-c1ccc(NC(=O)[C@@H](NC(=O)c2ccc3n2CCNC3)C2CCCCCC2)cc1 [Example 116, (S)-4-(4-(2-cycloheptyl-2-(1,2,3,4-tetrahydropyrrolo[1,2-a]pyrazine-6-carboxamido)acetamido)phenyl)-3,5-dimethylpyridine 1-oxide] |  |  |
| 6.79 | 6.92 | Cc1c[n+]([O-])cc(C)c1-c1ccc(NC(=O)[C@@H](NC(=O)c2ccc3n2CCN(C)C3)C2CCCCCC2)cc1 [Example 117, (S)-4-(4-(2-cycloheptyl-2-(2-methyl-1,2,3,4-tetrahydropyrrolo[1,2-a]pyrazine-6-carboxamido)acetamido)phenyl)-3,5-dimethylpyridine 1-oxide] |  |  |
| 6.74 | 7.70 | CC(=O)N1CCn2c(ccc2C(=O)N[C@H](C(=O)Nc2ccc(-c3c(C)c[n+]([O-])cc3C)cc2)C2CCCCCC2)C1 [Example 118, (S)-4-(4-(2-(2-acetyl-1,2,3,4-tetrahydropyrrolo[1,2-a]pyrazine-6-carboxamido)-2-cycloheptylacetamido)phenyl)-3,5-dimethylpyridine 1-oxide] |  |  |

Continued, molecule first:

| Structure (SMILES) | pIC50 [1, 3] | pIC50 [2, 4] | pIC50 ([1]; IL17AA FRET/ IL17Rawt IC50, TR-FRET) | pIC50 ([2]; IL17AA + TNF IC50 IL-6, NHDF cells) |
| --- | --- | --- | --- | --- |
| CCn1nccc1C(=O)NC(C(=O)Nc1ccc(-c2c(Cl)cc[n+]([O-])c2C)c(F)c1)C1CCC(F)(F)CC1 (centres unmarked) [Example 108, 4-chloro-3-(4-(2-(4,4-difluorocyclohexyl)-2-(1-ethyl-1H-pyrazole-5-carboxamido)acetamido)-2-fluorophenyl)-2-methylpyridine 1-oxide] |  |  | 7.52 | 8.15 |
| Cc1cc(-c2ccc(NC(=O)[C@@H](NC(=O)c3ccnn3C)C3CCCCC3)cc2)c(C)[n+]([O-])c1 [Example 113, (S)-3-(4-(2-cyclohexyl-2-(1-methyl-1H-pyrazole-5-carboxamido)acetamido)phenyl)-2,5-dimethylpyridine 1-oxide] | 6.47 | 7.42 |  |  |
| Cc1c(-c2ccc(NC(=O)[C@@H](NC(=O)c3ccnn3C)C3CCCCC3)cc2)cc(CO)c[n+]1[O-] [Example 115, (S)-3-(4-(2-cyclohexyl-2-(1-methyl-1H-pyrazole-5-carboxamido)acetamido)phenyl)-5-(hydroxymethyl)-2-methylpyridine 1-oxide] | 5.86 | 6.70 |  |  |
| Cc1cc[n+]([O-])c(C)c1-c1ccc(NC(=O)[C@@H](NC(=O)c2ccn3c2CN(C)CC3)C2CCCCCC2)cc1 [Example 119, (S)-3-(4-(2-cycloheptyl-2-(2-methyl-1,2,3,4-tetrahydropyrrolo[1,2-a]pyrazine-8-carboxamido)acetamido)phenyl)-2,4-dimethylpyridine 1-oxide] | 6.89 | 7.82 |  |  |
| Cc1cc[n+]([O-])c(C)c1-c1ccc(NC(=O)[C@@H](NC(=O)c2ccc3n2CCN(C)C3)C2CCCCCC2)cc1 [Example 120, (S)-3-(4-(2-cycloheptyl-2-(2-methyl-1,2,3,4-tetrahydropyrrolo[1,2-a]pyrazine-6-carboxamido)acetamido)phenyl)-2,4-dimethylpyridine 1-oxide] | 7.03 | 8.40 |  |  |
